Holding throughout (format): functional
The test system of assay [1] is Staphylococcus epidermidis. Briefly: Antibacterial activity against methicillin-resistant Staphylococcus epidermidis isolate cpu3889 after 18 to 20 hrs by agar dilution method.
Assay [2] relates to Staphylococcus epidermidis. Briefly: Ratio of amoxicillin MIC to compound MIC for methicillin-sensitive Staphylococcus epidermidis isolate cpu2089.
The subject of assay [3] is Staphylococcus epidermidis. Briefly: Ratio of amoxicillin MIC to compound MIC for methicillin-sensitive Staphylococcus epidermidis isolate cpu1561.
For assay [4], the system named is Staphylococcus aureus. Briefly: Antibacterial activity against methicillin-sensitive Staphylococcus aureus isolate cpu0587 after 18 to 20 hrs by agar dilution method.
The test system of assay [5] is Staphylococcus aureus. Put plainly: Ratio of amoxicillin MIC to compound MIC for methicillin-sensitive Staphylococcus aureus isolate cpu0211.
For assay [6], the system named is Staphylococcus epidermidis. Briefly: Ratio of amoxicillin MIC to compound MIC for methicillin-sensitive Staphylococcus epidermidis isolate cpu0347.
Assay [7] deals with Staphylococcus aureus. Briefly: Ratio of amoxicillin MIC to compound MIC for methicillin-sensitive Staphylococcus aureus isolate cpu1044.
Assay [8] relates to Staphylococcus epidermidis. Put plainly: Ratio of amoxicillin MIC to compound MIC for methicillin-sensitive Staphylococcus epidermidis isolate cpu0315.
The subject of assay [9] is Staphylococcus aureus. Put plainly: Ratio of amoxicillin MIC to compound MIC for methicillin-sensitive Staphylococcus aureus isolate cpu1344.
Assay [10] deals with Staphylococcus aureus. Briefly: Antibacterial activity against methicillin-sensitive Staphylococcus aureus isolate cpu1344 after 18 to 20 hrs by agar dilution method.
For assay [11], the system named is Staphylococcus epidermidis. Put plainly: Antibacterial activity against methicillin-sensitive Staphylococcus epidermidis isolate cpu0315 after 18 to 20 hrs by agar dilution method.
Assay [12] concerns Staphylococcus epidermidis. Put plainly: Antibacterial activity against methicillin-resistant Staphylococcus epidermidis isolate cpu3569 after 18 to 20 hrs by agar dilution method.
Assay [13] concerns Staphylococcus aureus. Briefly: Antibacterial activity against methicillin-sensitive Staphylococcus aureus isolate cpu1044 after 18 to 20 hrs by agar dilution method.
Assay [14] deals with Staphylococcus epidermidis. Put plainly: Antibacterial activity against methicillin-resistant Staphylococcus epidermidis isolate cpu2736 after 18 to 20 hrs by agar dilution method.
For assay [15], the system named is Staphylococcus aureus. Put plainly: Antibacterial activity against methicillin-resistant Staphylococcus aureus isolate cpu0887 after 18 to 20 hrs by agar dilution method.
In assay [16] the test system is Staphylococcus aureus. Put plainly: Antibacterial activity against methicillin-sensitive Staphylococcus aureus isolate cpu0211 after 18 to 20 hrs by agar dilution method.
For assay [17], the system named is Staphylococcus aureus. Put plainly: Ratio of amoxicillin MIC to compound MIC for methicillin-sensitive Staphylococcus aureus isolate cpu0587.
Assay [18] concerns Staphylococcus epidermidis. Briefly: Antibacterial activity against methicillin-sensitive Staphylococcus epidermidis isolate cpu0347 after 18 to 20 hrs by agar dilution method.
Assay [19] relates to Staphylococcus epidermidis. Put plainly: Antibacterial activity against methicillin-sensitive Staphylococcus epidermidis isolate cpu2089 after 18 to 20 hrs by agar dilution method.
Assay [20] deals with Staphylococcus epidermidis. Put plainly: Antibacterial activity against methicillin-resistant Staphylococcus epidermidis isolate cpu2623 after 18 to 20 hrs by agar dilution method.
The subject of assay [21] is Staphylococcus aureus. Put plainly: Antibacterial activity against methicillin-resistant Staphylococcus aureus isolate cpu0446 after 18 to 20 hrs by agar dilution method.
In assay [22] the test system is Staphylococcus aureus. Put plainly: Antibacterial activity against methicillin-resistant Staphylococcus aureus isolate cpu3256 after 18 to 20 hrs by agar dilution method.
Assay [23] concerns Staphylococcus epidermidis. Briefly: Antibacterial activity against methicillin-sensitive Staphylococcus epidermidis isolate cpu1561 after 18 to 20 hrs by agar dilution method.
Assay [24] relates to Staphylococcus aureus. Briefly: Antibacterial activity against methicillin-resistant Staphylococcus aureus isolate cpu1098 after 18 to 20 hrs by agar dilution method.
Assay [25] relates to Staphylococcus aureus. Briefly: Antibacterial activity against Staphylococcus aureus.
A further assay deals with Streptococcus pyogenes. Briefly: Antibacterial activity against Streptococcus pyogenes.
A further assay concerns Mycoplasma. Put plainly: Antimicrobial activity against Mycoplasma by serial two fold dilution assay.
In the next assay the test system is Brachyspira pilosicoli. Put plainly: Antibacterial activity against Brachyspira pilosicoli.

Molecules are shown by their SMILES. In brackets after ≈: the same amount, converted by molar mass. A value given as a limit tells only on which side of the number the result lay.

Regarding `C=C[C@]1(C)C[C@@H](OC(=O)CSCc2csc(NC(=O)CN3CCCCC3)n2)[C@]2(C)[C@H](C)CC[C@]3(CCC(=O)[C@H]32)[C@@H](C)[C@@H]1O`, the MIC in [1] came to 0.0625 µg/mL (≈ 0.0989 µM); against Staphylococcus aureus [4], 2 µg/mL (≈ 3.17 µM); in the assay with Staphylococcus aureus [10], 0.0625 µg/mL (≈ 0.0989 µM); in assay [11], 0.0625 µg/mL (≈ 0.0989 µM); in assay [12], 0.0625 µg/mL (≈ 0.0989 µM); in the assay on Staphylococcus aureus [13], 0.125 µg/mL (≈ 0.198 µM). The MIC in assay [14] turned out to be 0.0625 µg/mL (≈ 0.0989 µM); against Staphylococcus aureus [15], 0.0625 µg/mL (≈ 0.0989 µM); in the assay with Staphylococcus aureus [16] it was 0.125 µg/mL (≈ 0.198 µM); in [18] it was 0.0625 µg/mL (≈ 0.0989 µM); in [19] it was 0.125 µg/mL (≈ 0.198 µM); in assay [20], 0.0625 µg/mL (≈ 0.0989 µM). Besides, the minimal inhibitory concentration (MIC) against Staphylococcus aureus [21] stood at 0.5 µg/mL (≈ 0.791 µM); with Staphylococcus aureus [22] it was 0.25 µg/mL (≈ 0.396 µM); in [23], 0.0625 µg/mL (≈ 0.0989 µM); against Staphylococcus aureus [24], 0.25 µg/mL (≈ 0.396 µM). Moreover, the Ratio (in assay [2]; in assay [3]; in the assay with Staphylococcus aureus [5]; in assay [6]; in the assay with Staphylococcus aureus [7]; in [8]) was 8 throughout. In addition, the Ratio in the assay on Staphylococcus aureus [9] and with Staphylococcus aureus [17] was 8 throughout.

In the case of `C=C[C@]1(C)C[C@@H](OC(=O)CS[C@@H]2C[C@H]3CC[C@@H](C2)N3C)[C@]2(C)[C@H](C)CC[C@]3(CCC(=O)[C@H]32)[C@@H](C)[C@@H]1O` [RETAPAMULIN], the minimum inhibitory concentration (MIC) was 0.12 µg/mL (≈ 0.232 µM) with Staphylococcus aureus [25] and 0.016 µg/mL (≈ 0.0309 µM) against Streptococcus pyogenes.

For `C=C[C@]1(C)C[C@@H](OC(=O)CSCCN(CC)CC)[C@]2(C)[C@H](C)CC[C@]3(CCC(=O)[C@H]32)[C@@H](C)[C@@H]1O` [TIAMULIN], the MIC stood at 1 µg/mL (≈ 2.03 µM) in assay [1]; 8 µg/mL (≈ 16.2 µM) in the assay with Staphylococcus aureus [4]; 2 µg/mL (≈ 4.05 µM) in the assay with Staphylococcus aureus [10]; 0.0625 µg/mL (≈ 0.127 µM) in assay [11]; 0.25 µg/mL (≈ 0.506 µM) in assay [12]; 8 µg/mL (≈ 16.2 µM) against Staphylococcus aureus [13]. For the same molecule, the MIC in assay [14] was found to be 0.0625 µg/mL (≈ 0.127 µM); in the assay on Staphylococcus aureus [15], 0.5 µg/mL (≈ 1.01 µM); against Staphylococcus aureus [16], 2 µg/mL (≈ 4.05 µM); in [18] it was 0.5 µg/mL (≈ 1.01 µM); in assay [19], 0.5 µg/mL (≈ 1.01 µM); in [20], 1 µg/mL (≈ 2.03 µM). Also, the minimal inhibitory concentration (MIC) against Staphylococcus aureus [21] is 2 µg/mL (≈ 4.05 µM); against Staphylococcus aureus [22] it was 2 µg/mL (≈ 4.05 µM); in the assay on Mycoplasma, less than 1 µg/mL; in assay [23] it was 0.0625 µg/mL (≈ 0.127 µM); against Staphylococcus aureus [24], 2 µg/mL (≈ 4.05 µM).

`C=C[C@]1(C)C[C@@H](OC(=O)CSC(C)(C)CNC(=O)[C@H](N)C(C)C)[C@]2(C)[C@H](C)CC[C@]3(CCC(=O)[C@H]32)[C@@H](C)[C@@H]1O` [VALNEMULIN] displayed an MIC in the assay on Brachyspira pilosicoli of 0.03 µg/mL (≈ 0.0531 µM).

For the origin of these results see ChEMBL document CHEMBL2086231, “Novel pleuromutilin derivatives as antibacterial agents: synthesis, biological evaluation and molecular docking studies” (2012).
